Data taken from ChEMBL document CHEMBL1133957, “A selective inhibitor of Escherichia coli prephenate dehydratase” (Bioorg Med Chem Lett, 2001).
The source made the active and inactive calls. The rule behind the calls is not given here.

Columns and labels:
Escherichia coli [1] = test: Inhibitory activity against (PDT22) Prephenate dehydratase at 500 uM; No inhibition
Escherichia coli [2] = test: Inhibitory activity against chorismate mutase at 500 uM; No inhibition
[3] = Inhibitory activity against (PDT22) Prephenate dehydratase; parameters: species or system Escherichia coli
[4] = Inhibitory activity against chorismate mutase; parameters: species or system Escherichia coli
Escherichia coli [5] = test: Inhibitory activity against (PDT22) Prephenate dehydratase at 500 uM
[6] = Inhibitory activity against Chorismate mutase; parameters: species or system Escherichia coli
Escherichia coli [7] = test: Inhibitory activity against chorismate mutase; No inhibition

| Compound | IC50 [3] [µM] | IC50 [4] [µM] | also measured |
| --- | --- | --- | --- |
| O=C(O)c1ccccc1-c1ccccc1C(=O)O | – | – | inhibition (Escherichia coli [1]): inactive; inhibition (Escherichia coli [2]): inactive |
| COc1cccc(C(=O)O)c1-c1ccccc1C(=O)O | 4000 | – | – |
| O=C(O)c1cccc(C(=O)O)c1-c1c(C(=O)O)cccc1[N+](=O)[O-] | 1700 | 450 | – |
| O=C(O)c1cc(O)ccc1-c1c(C(=O)O)cccc1[N+](=O)[O-] | 950 | 350 | – |
| O=C(O)c1ccccc1-c1c(O)cccc1C(=O)O | 2900 | 1000 | – |
| O=C(O)c1cc(O)c(O)cc1-c1c(C(=O)O)cccc1[N+](=O)[O-] | – | 1000 | inhibition (Escherichia coli [5]): < 25% |
| O=C(O)c1ccc([N+](=O)[O-])cc1-c1c(C(=O)O)cccc1[N+](=O)[O-] | 750 | 1150 | – |
| O=C(O)c1cc(C(=O)O)c(-c2ccccc2[N+](=O)[O-])c(C(=O)O)c1 | 1850 | – | IC50 [6]: 3000 µM |
| O=C(O)c1cccc([N+](=O)[O-])c1-c1cccc(F)c1C(=O)O | 2250 | 600 | – |
| CC(=O)Nc1cccc(C(=O)O)c1-c1c(NC(C)=O)cccc1C(=O)O | – | – | inhibition (Escherichia coli [1]): inactive; inhibition (Escherichia coli [7]): inactive |
| Cc1cccc(C(=O)O)c1-c1c(C(=O)O)cccc1[N+](=O)[O-] | 1300 | 730 | – |
| O=C(O)c1ccc([N+](=O)[O-])c(-c2c(C(=O)O)cccc2[N+](=O)[O-])c1 | 550 | 1350 | – |
| COc1cccc(C(=O)O)c1-c1c(C(=O)O)cccc1[N+](=O)[O-] | 3000 | 800 | – |
| O=C(O)c1ccccc1-c1c(C(=O)O)cccc1[N+](=O)[O-] | 1900 | 280 | – |
| O=C(O)c1cccc([N+](=O)[O-])c1-c1c(C(=O)O)cccc1[N+](=O)[O-] | 600 | 50 | – |
